The values below come from patent US11512079B2, “Heterocycle substituted pyridine derivative antifungal agents” (Amplyx Pharmaceuticals, Inc., priority 2017, dated 2022).

Values after ≈ are worked out from the molar mass of the structure shown.

Holding throughout (type): cell-based
The test system of experiment [1] is Aspergillus fumigatus MYA3626. As to the kind of experiment: In vitro antifungal assay (Example IX), microdilution broth, MEC. The note with it: minimum effective concentration (shortening of hyphae), 35° C., 40-48 h, RPMI1640. Here is the method:
(§1) Measurement of antifungal activity: […] Candida albicans 90028, Aspergillus fumigatus MYA3626, Rhizomucor pusillus 46342 and Cryptococcus neoformans […] strains were obtained from American Type Culture Collection (ATCC). […] (A. fumigatus) and 35° C. (R. pusillus). Water containing 1% Tween was directly added to the agar plate and gently agitated to wet and remove the Aspergillus conidia. For R. pusillus, water was added to the surface and gently massaged to wet and remove the spores. For both species, the conidia or spores and mycelial fragments were collected, followed by removal of mycelium, conidiophores and large clumps of conidia/spores. The resulting spore suspension was counted and diluted into RPMI1640 medium to adjust to a final suspension of 1-2×10^4 spores/mL. The suspension was used in the MEC measurement as described below. […] The compounds were weighed and DMSO was added to prepare a 10 mg/mL stock. The solutions were mixed by vortexing and sonication at 37° C. for 5-10 mins. The resulting solutions were sterile filtered using a PTFE filter, and aliquoted (12 μL or as needed) and stored at -20° C. Intermediate compound dilutions were prepared in sterile polypropylene tubes in 100% DMSO. […] This was validated by thorough mixing and reading at 600 nm on a microplate reader. The minimum concentration that led to shortening of hyphae as compared to hyphal growth in DMSO control wells was determined as the minimum effective concentration (MEC) for A. fumigatus and R. pusillus (as read for echinocandins). The use of the MIC and MEC endpoints against yeasts and molds, respectively has been described by Pfaller M A, Duncanson F, Messer S A, Moet G J, Jones […]. Antimicrob Agents Chemother. 2011. 55(11):5155-8. In vitro activity of a novel broad-spectrum antifungal, […], tested against Aspergillus spp. determined by CLSI and EUCAST broth microdilution methods. Results are shown in Table 2, and the letters indicate the following ranges in μg/mL: […]
(In general: Dilution methods test growth across graded concentrations, often in twofold steps.)

The subject of experiment [2] is Rhizomucor pusillus 46342. The description is as above. The note with it: minimum effective concentration (shortening of hyphae), 35° C., 40-48 h, RPMI1640. The method, then:
as §1

The subject of the next experiment is Candida albicans 90028. As to the kind of experiment: In vitro antifungal assay (Example IX), microdilution broth, MIC. The note with it: minimum inhibitory concentration (≥50% inhibition), 35° C., 40-48 h, RPMI1640. Here is the method:
Measurement of antifungal activity: Antifungal activity of the compounds was evaluated in a microdilution broth assay as per Clinical and Laboratory Standard Institute methodology for yeast (for Candida and Cryptococcus) (1) and molds (for Aspergillus and Rhizomucor) (2). Candida albicans 90028, Aspergillus fumigatus MYA3626, Rhizomucor pusillus 46342 and Cryptococcus neoformans H99 strains were obtained from American Type Culture Collection (ATCC).
Preparation of Fungal Suspension. C. albicans 90028 and C. neoformans H99 strains were streaked from frozen stocks at −80° C. onto Sabouraud Dextrose Agar (SDA) plates. These were allowed to grow for 24 h (C. albicans) and 48 h (C. neoformans) at 35° C. before using them in the assay. 5-6 individual colonies were picked and diluted into sterile water to obtain a fungal suspension. The cell density of the suspension was determined and the culture diluted with RPMI1640 medium to obtain a fungal suspension of 2.5×10^3 cells/mL. The suspension was used in the MIC measurement as described below.
Preparation of Compound Stocks and Intermediate Dilutions: The compounds were weighed and DMSO was added to prepare a 10 mg/mL stock. The solutions were mixed by vortexing and sonication at 37° C. for 5-10 mins. The resulting solutions were sterile filtered using a PTFE filter, and aliquoted (12 μL or as needed) and stored at −20° C. Intermediate compound dilutions were prepared in sterile polypropylene tubes in 100% DMSO. The compound stock solution was first diluted in DMSO to obtain a concentration of […] to 0.19 μg/mL.
MIC/MEC Measurement: 99 μL 1 of the fungal suspension in RPMI1640 prepared as above was added to each well of a 96-well round bottom assay plate. 1 μL of the intermediate compound dilutions (200-0.19 μg/mL) were added to wells of the plate. This led to a 100-fold dilution of the intermediate dilutions resulting in a final compound concentration of 2-0.0019 μg/mL in the plate. 1 μL of DMSO was added to “No drug” control wells. The solutions were mixed by shaking on a plate shaker for 10 mins and plates incubated at 35° C. for 40-48 h (C. albicans, A. fumigatus, R. pusillus) and 72 h (Cryptococcus). […] This was validated by thorough mixing and reading at 600 nm on a microplate reader. The minimum concentration that led to shortening of hyphae as compared to hyphal growth in DMSO control wells was determined as the minimum effective concentration (MEC) for A. fumigatus and R. pusillus (as read for echinocandins). The use of the MIC and MEC endpoints against yeasts and molds, respectively has been described by Pfaller M A, Duncanson F, Messer S A, Moet G J, Jones R N, Castanheira M. Antimicrob Agents Chemother. 2011. 55(11):5155-8. In vitro activity of a novel broad-spectrum antifungal, E1210, tested against Aspergillus spp. determined by CLSI and EUCAST broth microdilution methods. Results are shown in Table 2, and the letters indicate the following ranges in μg/mL: […]

In general, minimal effective concentration refers to the smallest amount tested that counted as effective. Read a low minimal effective concentration as an effect from little substance. One may read the MIC as the lowest concentration that inhibits growth of the organism. As to `Nc1ncccc1-c1cc(Cc2ccc(CCl)cc2)no1` [B, 3-(3-(4-(chloromethyl)benzyl)isoxazol-5-yl)pyridin-2-amine], the results for the minimal effective concentration in experiment [1] and in experiment [2] were 0.1 to 1 µg/mL and over 1 µg/mL, respectively. The MIC in the experiment with Candida albicans 90028 was over 1 mg/L.

As for `Nc1ncccc1-c1cc(Cc2ccc(O)cc2)no1` [C, 4-((5-(2-aminopyridin-3-yl)isoxazol-3-yl)methyl)phenol], the results for the minimal effective concentration in experiment [1] and in experiment [2] were 0.1 to 1 µg/mL and over 1 µg/mL, respectively. In the experiment on Candida albicans 90028, this compound gave a minimum inhibitory concentration (MIC) of over 1 mg/L.

As to `Nc1ncccc1-c1cc(Cc2ccc(F)nc2)no1` [E, 3-(3-((6-fluoropyridin-3-yl)methyl)isoxazol-5-yl)pyridin-2-amine], the minimal effective concentration in experiment [1] and in experiment [2] was over 1 µg/mL each time. Besides, the MIC against Candida albicans 90028 is over 1 mg/L.

In the case of `Nc1ncccc1-c1cc(Cc2ccc(CNc3nc4ccccc4[nH]3)cc2)no1` [Example 145, N-(4-((5-(2-aminopyridin-3-yl)isoxazol-3-yl)methyl)benzyl)-1H-benzo[d]imidazol-2-amine], the minimal effective concentration in experiment [1] and in experiment [2] was over 1 µg/mL in each case. This compound gave an MIC in the experiment with Candida albicans 90028 of over 1 mg/L.

For the compound `Nc1ncccc1-c1cc(Cc2cccc(OCCc3cccc(F)c3)n2)no1` [Example 147, 3-(3-((6-(3-fluorophenethoxy)pyridin-2-yl)methyl)isoxazol-5-yl)pyridin-2-amine], the minimal effective concentration in experiment [1] and in experiment [2] was over 1 µg/mL in each case. In addition, in the experiment with Candida albicans 90028, the MIC is over 1 mg/L.

On to `Nc1ncccc1-c1cc(Cc2ccc(Cc3cccc(C(F)(F)F)n3)cc2)no1` [Example 151, 3-(3-(4-((6-(trifluoromethyl)pyridin-2-yl)methyl)benzyl)isoxazol-5-yl)pyridin-2-amine], for which the minimal effective concentration in experiment [1] and in experiment [2] was 0.1 to 1 µg/mL in each case. The compound also returned an MIC against Candida albicans 90028 of 0.1 to 1 mg/L (≈ 0.244 to 2.44 µM).

Turning to `Cn1ccc(Cc2ccc(Cc3cc(-c4cccnc4N)on3)cc2)n1` [Example 152, 3-(3-(4-((1-methyl-1H-pyrazol-3-yl)methyl)benzyl)isoxazol-5-yl)pyridin-2-amine], the minimal effective concentration was 0.01 to 0.1 µg/mL in experiment [1] and over 1 µg/mL in experiment [2]. Moreover, in the experiment with Candida albicans 90028, the minimal inhibitory concentration (MIC) fell in the range of 0.01 to 0.1 mg/L (≈ 0.029 to 0.29 µM).

Turning to `Nc1ncccc1-c1cc(Cc2ccc(NCc3ccc(F)cc3)nc2)no1` [Example 153, 5-((5-(2-aminopyridin-3-yl)isoxazol-3-yl)methyl)-N-(4-fluorobenzyl)pyridin-2-amine], the minimal effective concentration was 0.01 to 0.1 µg/mL in experiment [1] and over 1 µg/mL in experiment [2]. Besides, the MIC in the experiment with Candida albicans 90028 lay within 0.1 to 1 mg/L (≈ 0.266 to 2.66 µM).

Regarding `Cc1ncsc1CCOc1ccc(Cc2cc(-c3cccnc3N)on2)cn1` [Example 155, 3-(3-((6-(2-(4-methylthiazol-5-yl)ethoxy)pyridin-3-yl)methyl)isoxazol-5-yl)pyridin-2-amine], the minimal effective concentration in experiment [1] and in experiment [2] was over 1 µg/mL each time. For the same compound, the MIC in the experiment with Candida albicans 90028 is over 1 mg/L.

Consider `Nc1ncccc1-c1cc(Cc2ccc(OCCc3cc(F)c(F)cc3F)nc2)no1` [Example 158, 3-(3-((6-(2,4,5-trifluorophenethoxy)pyridin-3-yl)methyl)isoxazol-5-yl)pyridin-2-amine], for which the minimal effective concentration in experiment [1] is 0.1 to 1 µg/mL; in experiment [2], over 1 µg/mL. The same compound had a minimal inhibitory concentration (MIC) in the experiment on Candida albicans 90028 of 0.1 to 1 mg/L (≈ 0.235 to 2.35 µM).

For the compound `Nc1ncccc1-c1cc(Cc2ccc(OCCc3c(F)cccc3Cl)nc2)no1` [Example 159, 3-(3-((6-(2-chloro-6-fluorophenethoxy)pyridin-3-yl)methyl)isoxazol-5-yl)pyridin-2-amine], the figures for the minimal effective concentration in experiment [1] and in experiment [2] were 0.1 to 1 µg/mL and over 1 µg/mL, respectively. The minimum inhibitory concentration (MIC) in the experiment on Candida albicans 90028 lay in the range of 0.1 to 1 mg/L (≈ 0.235 to 2.35 µM).

Take `Nc1ncccc1-c1cc(Cc2ccc(OCc3ncccc3F)nc2)no1` [Example 162, 3-(3-((6-((3-fluoropyridin-2-yl)methoxy)pyridin-3-yl)methyl)isoxazol-5-yl)pyridin-2-amine]: the minimal effective concentration in experiment [1] was 0.1 to 1 µg/mL; in experiment [2], over 1 µg/mL. The MIC in the experiment with Candida albicans 90028 lay in the range of 0.01 to 0.1 mg/L (≈ 0.0265 to 0.265 µM).

`CC(C)(COc1ccc(Cc2cc(-c3cccnc3N)on2)cn1)c1ccccc1` [Example 163, 3-(3-((6-(2-methyl-2-phenylpropoxy)pyridin-3-yl)methyl)isoxazol-5-yl)pyridin-2-amine]: the minimal effective concentration in experiment [1] and in experiment [2] was 0.1 to 1 µg/mL throughout. This compound yielded an MIC against Candida albicans 90028 of over 1 mg/L.

Turning to `Nc1ncccc1-c1cc(Cc2ccc(OCc3cccc4ccccc34)nc2)no1` [Example 164, 3-(3-((6-(naphthalen-1-ylmethoxy)pyridin-3-yl)methyl)isoxazol-5-yl)pyridin-2-amine], the minimal effective concentration in experiment [1] is 0.1 to 1 µg/mL; in experiment [2], over 1 µg/mL. In the experiment with Candida albicans 90028, the MIC was over 1 mg/L.

As to `CC(C)=CCOc1ccc(Cc2cc(-c3cccnc3N)on2)cn1` [Example 166, 3-(3-((6-((3-methylbut-2-en-1-yl)oxy)pyridin-3-yl)methyl)isoxazol-5-yl)pyridin-2-amine], the minimal effective concentration in experiment [1] fell in the range of 0.01 to 0.1 µg/mL; in experiment [2], 0.1 to 1 µg/mL. The compound further registered an MIC against Candida albicans 90028 of 0.1 to 1 mg/L (≈ 0.297 to 2.97 µM).

Take `Nc1ncccc1-c1cnn(Cc2ccc(Oc3ccccc3)nc2)c1` [compound 63, 3-(1-((6-phenoxypyridin-3-yl)methyl)-1H-pyrazol-4-yl)pyridin-2-amine]: the minimal effective concentration in experiment [2] is over 1 µg/mL. The same compound displayed an MIC in the experiment with Candida albicans 90028 of 0.1 to 1 mg/L (≈ 0.291 to 2.91 µM).

Compound `c1ccc(Oc2ccc(Cn3cc(-c4cccnc4)cn3)cn2)cc1` [compound 64, 2-phenoxy-5-((4-(pyridin-3-yl)-1H-pyrazol-1-yl)methyl)pyridine] came in with a minimal effective concentration in experiment [2] of over 1 µg/mL. The same compound returned an MIC with Candida albicans 90028 of 0.1 to 1 mg/L (≈ 0.305 to 3.05 µM).

With `Nc1ncccc1-c1cc(Cc2ccc(OCCc3cccc(F)c3)nc2)no1` [compound 91, 3-(3-((6-(3-fluorophenethoxy)pyridin-3-yl)methyl)isoxazol-5-yl)pyridin-2-amine], the minimal effective concentration in experiment [2] is over 1 µg/mL.

`Nc1ncccc1-c1cc(Cc2ccc(OCc3cc(Cl)ccn3)nc2)no1` [compound 92, 3-(3-((6-((4-chloropyridin-2-yl)methoxy)pyridin-3-yl)methyl)isoxazol-5-yl)pyridin-2-amine] displayed a minimal effective concentration in experiment [2] of 0.1 to 1 µg/mL.

In the case of `Nc1ncccc1-c1cc(Cc2ccc(CNc3nc(=O)[nH]cc3F)cc2)no1` [compound 232, 4-((4-((5-(2-aminopyridin-3-yl)isoxazol-3-yl)methyl)benzyl)amino)-5-fluoropyrimidin-2(1H)-one], in experiment [1], the minimal effective concentration was over 1 µg/mL. In the experiment on Candida albicans 90028, this compound returned a minimum inhibitory concentration (MIC) of over 1 mg/L.
